Laboratory results from US7371748B2, “Benzothiazole derivatives” (Hoffman-La Roche Inc., priority 2003, dated 2008).

Assays:
[1] = target: T1, human adenosine A2A receptor (Homo sapiens, UniProt P29274); test: [3H]-SCH-58261 binding assay, human adenosine A2A receptor; settings: human A2A receptor recombinantly expressed in CHO cell membranes; [3H]-SCH-58261 1 nM; Ki from IC50 by Cheng-Prussoff equation; read-out: Ha2 (pKi) (converted)
T1 construct: expressed in transfected cells; host or cells: CHO cells, Semliki Forest virus expression system; membrane preparation
T1 sequence (P29274 whole entry): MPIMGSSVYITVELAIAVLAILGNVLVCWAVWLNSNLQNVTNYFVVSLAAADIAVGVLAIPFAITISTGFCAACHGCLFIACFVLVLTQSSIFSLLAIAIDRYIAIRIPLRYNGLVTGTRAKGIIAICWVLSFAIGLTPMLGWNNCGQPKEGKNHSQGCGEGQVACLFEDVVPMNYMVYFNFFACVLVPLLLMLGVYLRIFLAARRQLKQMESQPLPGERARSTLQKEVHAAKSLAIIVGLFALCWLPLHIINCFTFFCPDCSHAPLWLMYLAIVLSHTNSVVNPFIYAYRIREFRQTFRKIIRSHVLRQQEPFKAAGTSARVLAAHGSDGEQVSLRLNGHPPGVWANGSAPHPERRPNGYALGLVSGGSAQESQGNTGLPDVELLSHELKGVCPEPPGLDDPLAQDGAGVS
Description: Human Adenosine A2A Receptor
The human adenosine A2A receptor was recombinantly expressed in chinese hamster ovary (CHO) cells using the semliki forest virus expression system. Cells were harvested, washed twice by centrifugation, homogenized and again washed by centrifugation. The final washed membrane pellet was suspended in a Tris (50 mM) buffer containing 120 mM NaCl, 5 mM KCl, 2 mM CaCl2 and 10 mM MgCl2 (pH 7.4) (buffer A). The [^3H]-SCH-58261 (Dionisotti et al., […], Br J Pharmacol 121, 353; 1 nM) binding assay was carried out in 96-well plates in the presence of 2.5 μg of membrane protein, 0.5 mg of Ysi-poly-1-lysine SPA beads and 0.1 U adenosine deaminase in a final volume of 200 μl of buffer A. Non-specific binding was defined using xanthine amine congener (XAC; 2 μM). Compounds were tested at 10 concentrations from 10 μM-0.3 nM. All assays were conducted in duplicate and repeated at least two times. Assay plates were incubated for 1 hour at room temperature before centrifugation and then bound ligand determined using a Packard Topcount scintillation counter. IC50 values were calculated using a non-linear curve fitting program and Ki values calculated using the Cheng-Prussoff equation.

| melting point [°C] | Ki [1] [nM] | Structure (SMILES) |
| --- | --- | --- |
| 218 to 220 | 1.58 | COc1ccc(C2CCOCC2)c2sc(NC(=O)CC3CCOCC3)nc12 [Example 33, N-[4-Methoxy-7-(tetrahydro-pyran-4-yl)-benzothiazol-2-yl]-2-(tetrahydro-pyran-4-yl)-acetamide] |
| 199 to 201 | 2 | COc1ccc(C2CCOCC2)c2sc(NC(=O)c3ccnc(CN4CCOCC4)c3)nc12 [Example 34, N-[4-Methoxy-7-(tetrahydro-pyran-4-yl)-benzothiazol-2-yl]-2-morpholin-4-ylmethyl-isonicotinamide] |
